Article PMC8465942, “Cyano- and Ketone-Containing Selenoesters as Multi-Target Compounds against Resistant Cancers” (Cancers, 2021)
Entries after “also recorded” stand apart in the source; their conditions may differ. Marks after values point to notes of the source that are not given here.

Experiments:
B16 (skin melanoma) = assay: Cytotoxicity on B16 cells; assay type: cell-based, murine; conditions: ratio IC50 non-tumour cells / IC50 cancer cells
[1] = test system: resistant Colo 320 colon adenocarcinoma cells expressing the ABCB1 transporter; assay: Checkerboard combination assay with doxorubicin; assay type: cell-based, human; conditions: for Interaction with doxorubicin: in at least one of the ratios tested
[2] = test system: Colo 320/MDR-LRP human colonic adenocarcinoma cell line; assay: Cytotoxicity (MTT) on resistant Colo 320 cells; assay type: cell-based; conditions: for IC50: Homo sapiens, COLO 320, 24 h, MTT, read-out: Colo 320 (IC50 µM) Mean; for SI MRC-5/Colo 320: ratio IC50 non-tumour cells / IC50 cancer cells
Outline: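 10^4 cells/well in RPMI-1640 were exposed to two-fold serial dilutions (0.19–100 μM) for 24 h at 37 °C. MTT was added for 4 h, then SDS/HCl overnight, with OD read at 540 nm (ref. 630 nm). IC50 = dose giving 50% growth reduction, from non-linear regression of triplicates.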

In the case of `CC(=O)C[Se]C(=O)c1cc(F)c(F)cc1F` [K8, Se-(2-Oxopropyl) 2,4,5-Trifluorobenzoselenoate], the “SI MRC-5/B16” value (B16 (skin melanoma)) is reported as 1.8, the Interaction with doxorubicin [1] is reported as “synergistic manner; also recorded: interact synergistically” and the “Type of Interaction” value ([1]; ratio 0.7:1, starting conc. 6 µM) is reported as “Strong synergism”. For the same molecule, the “Type of Interaction” value ([1]; ratio 1.4:1, starting conc. 6 µM) was “Antagonism”, the “Type of Interaction” value ([1]; ratio 2.8:1, starting conc. 6 µM) was “Antagonism” and the “Type of Interaction” value ([1]; ratio 5.6:1, starting conc. 6 µM) was “Antagonism”. The “Type of Interaction” value ([1]; ratio 11.2:1, starting conc. 6 µM) was “Antagonism”, the IC50 [2] was 2.37 µM and the “SI MRC-5/Colo 320” value [2] was 1.05.

In the case of `N#CC[Se]C(=O)c1cccc(F)c1` [N2, Se-(Cyanomethyl) 3-Fluorobenzoselenoate], the “SI MRC-5/B16” value (B16 (skin melanoma)) is reported as >6 *, the Interaction with doxorubicin [1] is reported as “synergistic manner; also recorded: synergistic effect” and the “Type of Interaction” value ([1]; ratio 1.7:1, starting conc. 15 µM) is reported as “Synergism”. The “Type of Interaction” value ([1]; ratio 3.4:1, starting conc. 15 µM) was “Antagonism”, the “Type of Interaction” value ([1]; ratio 6.8:1, starting conc. 15 µM) was “Synergism” and the “Type of Interaction” value ([1]; ratio 13.6:1, starting conc. 15 µM) was “Moderate antagonism”. The “Type of Interaction” value ([1]; ratio 27.2:1, starting conc. 15 µM) was “Antagonism”, the “Type of Interaction” value ([1]; ratio 54.4:1, starting conc. 15 µM) was “Antagonism” and the IC50 [2] was 7.01 µM. The “SI MRC-5/Colo 320” value [2] was >6 *.

`N#CC[Se]C(=O)c1ccc(Br)cc1` [N3, Se-(Cyanomethyl) 4-Bromobenzoselenoate] was tested, and the “SI MRC-5/B16” value (B16 (skin melanoma)) was >6 *, the Interaction with doxorubicin [1] was “synergistic manner; also recorded: synergistic effect” and the “Type of Interaction” value ([1]; ratio 1.2:1, starting conc. 10 µM) was “Antagonism”. The “Type of Interaction” value ([1]; ratio 2.4:1, starting conc. 10 µM) was “Strong antagonism”, the “Type of Interaction” value ([1]; ratio 4.8:1, starting conc. 10 µM) was “Moderate synergism” and the “Type of Interaction” value ([1]; ratio 9.6:1, starting conc. 10 µM) was “Additive effect”. The “Type of Interaction” value ([1]; ratio 19.2:1, starting conc. 10 µM) was “Slight antagonism”, the “Type of Interaction” value ([1]; ratio 38.4:1, starting conc. 10 µM) was “Moderate antagonism” and the IC50 [2] was 4.37 µM. The “SI MRC-5/Colo 320” value [2] was >6 *.
